Key:
[1] = tested on: IN/WHO strain house flies; experiment: topical application, percent kill after 24 hours, susceptible IN/WHO strain; format: in vivo, female)
Procedure, shortened: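 Insecticide plus synergist in acetone, 1.0 μl applied to the thorax of CO2-anesthetized 3-to-5-day-old female IN/WHO house flies, doses in μg/fly. Flies held 10 per dish, 3-5 dishes per treatment, with skim milk. Percent mortality scored after 24 h.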

[2] = tested on: Rutgers A strain house flies; experiment: topical application, percent kill after 24 hours, resistant Rutgers A strain; format: in vivo, female)
Procedure, shortened: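 Synergist plus mobam, Diazinon or GS 13005 dissolved in acetone, applied as 1.0 μl to the thorax of CO2-anaesthetised 3-to-5 day old female Rutgers A (resistant) house flies; doses in μg/fly. Flies held 10 per dish, 3-5 dishes per treatment, with skim milk; mortality scored at 24 h.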

male mice = experiment: extension of sleeping time of depressant drugs by synergists; format: in vivo, male mice (Swiss albino white)
Procedure, shortened: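 Swiss albino male mice (~38 days, 25-30 g) given synergist at 74.0 or 110.0 mg/kg in corn oil 1 h before Secobarbital 37.0 mg/kg or Noludar 110.0 mg/kg in water. Sleeping time measured from drug dosing to righting-reflex recovery; relative sleeping time = treated ÷ drug-only control.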

Compound: C#CCOC(c1ccc(Cl)cc1)C(C)[N+](=O)[O-] (stereo not shown) [IV-C]
- percent kill after 24 hours, with Diazinon ([1]; Diazinon 0.03 + synergist 0.15 μg/fly): 29%
- percent kill after 24 hours, with GS 13005 ([1]; GS 13005 0.05 + synergist 0.25 μg/fly): 9%
- percent kill after 24 hours, with GS 13005 ([1]; GS 13005 0.10 + synergist 0.125 μg/fly): 63%
- percent kill after 24 hours, with GS 13005 ([1]; GS 13005 0.10 + synergist 0.25 μg/fly): 75%
- percent kill after 24 hours, with GS 13005 ([1]; GS 13005 0.10 + synergist 0.50 μg/fly): 89%
- percent kill after 24 hours, with Mobam ([1]; Mobam 0.20 + synergist 0.25 μg/fly): 39%
- percent kill after 24 hours, with Mobam ([1]; Mobam 0.20 + synergist 0.50 μg/fly): 60%
- percent kill after 24 hours, with Mobam ([1]; Mobam 0.20 + synergist 1 μg/fly): 64%
- percent kill after 24 hours, synergist alone ([1]; insecticide 0, synergist 1 μg/fly): 0%
- percent kill after 24 hours, with Diazinon ([2]; Diazinon 3.0 + synergist 3.0 μg/fly): 19%
- percent kill after 24 hours, with GS 13005 ([2]; GS 13005 1.0 + synergist 5.0 μg/fly): 95%
- percent kill after 24 hours, synergist alone ([2]; insecticide 0, synergist 5.0 μg/fly): 0%
- Mean Sleeping Time, Noludar (male mice; Noludar 110 mg/kg, synergist 110 mg/kg one hour prior): 74 min
- Relative Sleeping Time, Noludar (male mice; Noludar 110 mg/kg, synergist 110 mg/kg, treated/control): 2.5
- Mean Sleeping Time, Secobarbital (male mice; Secobarbital 37 mg/kg, synergist 74 mg/kg one hour prior): 112 min
- Relative Sleeping Time, Secobarbital (male mice; Secobarbital 37 mg/kg, synergist 74 mg/kg, treated/control): 4.7

Source: patent US3954793A, “1-(2-Propynyl)-1 H-indazole compounds” (priority 1973, dated 1976)
